Source: paper PMC2063346, “Cyclosporin A as a multidrug-resistant modulator in patients with renal cell carcinoma treated with teniposide” (British Journal of Cancer, 1997)

What was measured:
[1] = VM26 plasma pharmacokinetics alone and with CSA (HPLC, compartmental model); format: in vivo, patients
Procedure: (§1) British Joumal of Cancer (1997) 75(5), 715-721 ? […] Sixteen patients initially received VM26 alone (200 mg m-2 day-' i.v.). […] For this reason, new approaches are highly recommended after a first-line treatment, usually interleukin 2 based (Yagoda et al, 1995). […] P-gp deter- mines reduced intracellular drug accumulation and/or altered intracellular drug compartmentation, preventing drugs from reaching the intracellular target site (Skovsgaard, 1978, Schuurhuis et al, 1989). […] Received 2 June 1996 Revised 2 October 1996 Accepted 17 October 1996 Correspondence to: M Boiocchi, Division of Experimental Oncology 1, Centro di Riferimento Oncologico, via Pedemontana Occidentale 12, 33081 Aviano (PN), Italy Although many chemosensitizers have been used successfully in vitro in MDR cell lines, their potential therapeutic role in the clinical setting remains an intriguing issue. […] This could determine alteration in the pharmacokinetics and pharmacodynamics of the cytotoxic agents (Lum et al, 1992; Wilson et al, 1995). […] The study was approved by the local ethics committee and informed consent was obtained from all patients. Treatment protocol The patients received the first course of VM26 (Vumon; Bristol Myers, Rome, Italy) at the dosage of 200 mg m-2 day-' i.v. every 3 weeks. The second cycle (same dosage) was administered in the event of response or stable disease, if no toxicity was documented. In the event of grade 4 toxicity the dose was reduced by 25%. […] The patients were clinically evaluated according to the usual phase II trials criteria (WHO), and blood tests were performed weekly. […] To determine the VM26 level, 5-ml blood samples were drawn from peripheral vein and collected in heparinized glass tubes before treatment at 0 h (i.e. immediately before the begin- ning of i.v. infusion of VM26) and at 1,6, 12, 18, 24,24.5,25,26, 28, 32, 36, 48 and 60h. Plasma samples, which were separated after centrifugation at 1000 g for 10 min, were kept frozen at - 20'C until analysis. Urine samples were collected before, during and after VM26 treatment. Each 12-h sample from well-stirred urine was stored and kept frozen at -20?C until analysis. […] These samples were frozen at -70?C until analysis. Drug assays The method used to determine VM26 in plasma samples was that described by Evans et al (1982). Briefly, 1 ml of plasma or urine was extracted with 8 ml of chloroform containing VP16 (100 gl of a 200-,ug ml solution) as internal standard. After 20-min shaking at +4?C, samples were centrifuged at 1500 g for 20 min at +4?C. The organic phase was dried under vacuum and then redissolved with 200 gl of methanol; 50 µl of this solution as injected into an LKB-Pharmacia (Cambridge, UK) high-performance liquid chro- matography (HPLC) system equipped with an absorbance detector set at 254 nm. Separation was achieved using an isocratic solvent system of water-acetonitrile-acetic acid (64:35:1) at a flow of 1 ml min-, using a 300 x 3.9-mm long ,uBondapak phenyl column (Waters, New York, NY, USA). Peak areas were quantitated with an LKB integrator. […] To calculate the concentrations of VM26, the internal standard method was adopted. […] Pharmacokinetic analyses To define the plasma concentration-time function and to estimate pharmacokinetic parameters of VM26 for each patient, a compart- mental model was adopted. Drug infusion and non-saturable elim- ination processes were considered zero-order and first-order processes respectively. Estimates of pharmacokinetic parameters [apparent volume of distribution (V); elimination half-life (t1,2p); systemic clearance (CI); maximum drug concentration (Cmax); and area under curve (AUC)] of VM26 and the numerical validation of the model were obtained by PCNONLIN 4.0, a non-linear regression program.

[2] = Total and renal clearance of VM26 (urine collection, seven patients); format: in vivo
Procedure: British Joumal of Cancer (1997) 75(5), 715-721 ? […] Sixteen patients initially received VM26 alone (200 mg m-2 day-' i.v.). […] For this reason, new approaches are highly recommended after a first-line treatment, usually interleukin 2 based (Yagoda et al, 1995). […] P-gp deter- mines reduced intracellular drug accumulation and/or altered intracellular drug compartmentation, preventing drugs from reaching the intracellular target site (Skovsgaard, 1978, Schuurhuis et al, 1989). […] Received 2 June 1996 Revised 2 October 1996 Accepted 17 October 1996 Correspondence to: M Boiocchi, Division of Experimental Oncology 1, Centro di Riferimento Oncologico, via Pedemontana Occidentale 12, 33081 Aviano (PN), Italy Although many chemosensitizers have been used successfully in vitro in MDR cell lines, their potential therapeutic role in the clinical setting remains an intriguing issue. […] The patients were clinically evaluated according to the usual phase II trials criteria (WHO), and blood tests were performed weekly. […] The organic phase was dried under vacuum and then redissolved with 200 gl of methanol; 50 µl of this solution as injected into an LKB-Pharmacia (Cambridge, UK) high-performance liquid chro- matography (HPLC) system equipped with an absorbance detector set at 254 nm. […] Peak areas were quantitated with an LKB integrator. […]

[3] = test system: metastatic renal cell carcinoma; assay: Treatment response, phase II (WHO criteria); format: in vivo, patients
Procedure: as §1

[4] = in vivo
Procedure: as §1

[5] = VM26 alone, first cycle, 16 patients
[6] = nine patients after two courses of VM26 alone

For `COc1cc([C@@H]2c3cc4c(cc3[C@@H](O[C@@H]3O[C@@H]5CO[C@@H](c6cccs6)O[C@H]5[C@H](O)[C@H]3O)[C@H]3COC(=O)[C@H]23)OCO4)cc(OC)c1O` [VM26, teniposide], the “AUC of VM26, median (range)” value [1, 5] was 290.3 (168.4-791.0) mg l-1 h, the “Cl of VM26, median (range)” value [1, 5] was 0.62 (0.25-1.2) l h-1 m-2 and the “Cmax of VM26, median (range)” value [1, 5] was 10.9 (7.0-22.3) mg l-1. For the same compound, the “V of VM26, median (range)” value [1, 5] was 5.5 (4.4-9.0) l m-2, the “t1/2 of VM26, median (range)” value [1, 5] was 6.8(2.8-14.8) h and the “variation in the paired AUC of VM26” value ([1]; after CSA versus VM26 alone) was 50%. For the same compound, the “decrease of systemic clearance of VM26” value ([1]; when CSA was added, P<0.01) was 1.4 fold, the “fraction of total clearance resulting from renal clearance” value ([2]; VM26 alone) was under 6% and the “Decrease of total Cl of VM26” value ([2]; VM26 plus CSA versus VM26 alone, seven patients, P<0.05) was 21%. The objective responses ([3]; VM26 alone 200 mg m-2 day-1 i.v., sixteen patients) was “No objective responses”, the “progressive disease, patients” value [3, 6] was “six” and the “stable disease, patients” value [3, 6] was “three”. The “Response (VM26)” value ([3]; patient 1, 2 cycles) was “SD (stable disease)”, the “Response (VM26)” value ([3]; patient 2, 2 cycles) was “PD (progressive disease)” and the “Response (VM26)” value ([3]; patient 3, 2 cycles) was “PD (progressive disease)”. The “Response (VM26)” value ([3]; patient 4, 2 cycles) was “PD (progressive disease)”, the “Response (VM26)” value ([3]; patient 5, 2 cycles) was “SD (stable disease)” and the “Response (VM26)” value ([3]; patient 6, 2 cycles) was “SD (stable disease)”. For the same compound, the “Response (VM26)” value ([3]; patient 7, 2 cycles) was “PD (progressive disease)”, the “Response (VM26)” value ([3]; patient 8, 2 cycles) was “PD (progressive disease)” and the “Response (VM26)” value ([3]; patient 9, 2 cycles) was “PD (progressive disease)”. The “ANC/AUC ratio (nadir ANC standardized for AUC of VM26)” value [4] was 7.38 ± 5.51, the “bilirubin (in the normal range)” value [4] was under 1.5 mg 100 ml-1 and the “cutaneous eruption, patients” value [4] was “one patient”. The “cycles with significant vomiting, mucositis or constipation” value [4] was < 15 % of cycles, the “grade 3 neutropenia, patients” value [4] was “three” and the “hair loss, patients” value [4] was “all patients”. The “nadir neutrophil count (ANC), median” value [4] was 1900 µL⁻¹ and the “nadir neutrophil count (ANC), range” value [4] was 200 to 6000 µL⁻¹.
